Key:
Format in all cases: physicochemical
[1] = Emulsion test of L-ascorbic acid in various types of solvents; conditions: stirred 3 hr
Text: Two combinations of solvents gave emulsified solutions, there were tetrahydrofuran/heptanes and methanol/water

[2] = Solubility test of paliperidone palmitate in various types of solvents; conditions: ratio 1/15 (v/w), 30° C., stirred about 0.5 hour
Experimental: The solubility of paliperidone palmitate in various types of solvents was evaluated. To this purpose, paliperidone palmitate and the designated solvent were mixed in a ratio of 1/15 (v/w) at 30° C. and the mixture was stirred for about 0.5 hour.

[3] = Emulsion test of paliperidone palmitate in various types of solvents; conditions: stirred 3 hr
Experimental: Paliperidone palmitate was dissolved in DCM, THF, or toluene at 30° C. and stirred for about 0.5 hour to form a first solution, then a second solvent (as indicated in Table 2) was added and stirred for 3 hr. As the data in Table 2 indicated, among the 36 combinations (i.e., the combination of one of the 3 first solutions and one of the second solvents), only three combinations gave satisfied emulsified solutions, which comprised particles of paliperidone palmitate. The 3 combinations were THF/water, toluene/heptanes, and toluene/hexane, respectively.

In the case of `O=C1O[C@H]([C@@H](O)CO)C(O)=C1O` [L-ascorbic acid], the “Emulsion test result of the first solution containing L-ascorbic acid with the second solvent” value ([1]; first solvent methanol, second solvent water) is reported as “emulsified” and the “Emulsion test result of the first solution containing L-ascorbic acid with the second solvent” value ([1]; first solvent tetrahydrofuran, second solvent heptanes) is reported as “emulsified”.

In the case of `CCCCCCCCCCCCCCCC(=O)OC1CCCn2c1nc(C)c(CCN1CCC(c3noc4cc(F)ccc34)CC1)c2=O` (centres unmarked) [paliperidone palmitate], the “Solubility of paliperidone palmitate” value ([2]; solvent ACN) is reported as “insoluble”, the “Solubility of paliperidone palmitate” value ([2]; solvent Acetone) is reported as “insoluble” and the “Solubility of paliperidone palmitate” value ([2]; solvent DCM) is reported as “soluble”. The “Solubility of paliperidone palmitate” value ([2]; solvent EtOAc) was “insoluble”, the “Solubility of paliperidone palmitate” value ([2]; solvent EtOH) was “insoluble” and the “Solubility of paliperidone palmitate” value ([2]; solvent Heptanes) was “insoluble”. The “Solubility of paliperidone palmitate” value ([2]; solvent Hexane) was “insoluble”, the “Solubility of paliperidone palmitate” value ([2]; solvent IPA) was “insoluble” and the “Solubility of paliperidone palmitate” value ([2]; solvent MTBE) was “insoluble”. For the same compound, the “Solubility of paliperidone palmitate” value ([2]; solvent THF) was “soluble”, the “Solubility of paliperidone palmitate” value ([2]; solvent Toluene) was “soluble” and the “Solubility of paliperidone palmitate” value ([2]; solvent Water) was “insoluble”. For the same compound, the “Solubility of the second solvent in the first solution containing paliperidone palmitate” value (“Solubility of the second solvent” below) ([3]; first solvent DCM, second solvent ACN) was “miscible”, the “Solubility of the second solvent” value ([3]; first solvent DCM, second solvent Acetone) was “miscible” and the “Solubility of the second solvent” value ([3]; first solvent DCM, second solvent EtOAc) was “miscible”. For the same compound, the “Solubility of the second solvent” value ([3]; first solvent DCM, second solvent EtOH) was “miscible”, the “Solubility of the second solvent” value ([3]; first solvent DCM, second solvent Heptanes) was “miscible” and the “Solubility of the second solvent” value ([3]; first solvent DCM, second solvent Hexane) was “miscible”. The “Solubility of the second solvent” value ([3]; first solvent DCM, second solvent IPA) was “miscible”, the “Solubility of the second solvent” value ([3]; first solvent DCM, second solvent MTBE) was “miscible” and the “Solubility of the second solvent” value ([3]; first solvent DCM, second solvent THF) was “miscible”. For the same compound, the “Solubility of the second solvent” value ([3]; first solvent DCM, second solvent Toluene) was “miscible”, the “Solubility of the second solvent” value ([3]; first solvent DCM, second solvent Water) was “layered” and the “Solubility of the second solvent” value ([3]; first solvent THF, second solvent ACN) was “miscible”. For the same compound, the “Solubility of the second solvent” value ([3]; first solvent THF, second solvent Acetone) was “miscible”, the “Solubility of the second solvent” value ([3]; first solvent THF, second solvent DCM) was “miscible” and the “Solubility of the second solvent” value ([3]; first solvent THF, second solvent EtOAc) was “miscible”. The “Solubility of the second solvent” value ([3]; first solvent THF, second solvent EtOH) was “miscible”, the “Solubility of the second solvent” value ([3]; first solvent THF, second solvent Heptanes) was “miscible” and the “Solubility of the second solvent” value ([3]; first solvent THF, second solvent Hexane) was “miscible”. For the same compound, the “Solubility of the second solvent” value ([3]; first solvent THF, second solvent IPA) was “miscible”, the “Solubility of the second solvent” value ([3]; first solvent THF, second solvent MTBE) was “miscible” and the “Solubility of the second solvent” value ([3]; first solvent THF, second solvent Toluene) was “miscible”. The “Solubility of the second solvent” value ([3]; first solvent THF, second solvent Water) was “emulsified”, the “Solubility of the second solvent” value ([3]; first solvent Toluene, second solvent ACN) was “miscible” and the “Solubility of the second solvent” value ([3]; first solvent Toluene, second solvent Acetone) was “miscible”. For the same compound, the “Solubility of the second solvent” value ([3]; first solvent Toluene, second solvent DCM) was “miscible”, the “Solubility of the second solvent” value ([3]; first solvent Toluene, second solvent EtOAc) was “miscible” and the “Solubility of the second solvent” value ([3]; first solvent Toluene, second solvent EtOH) was “miscible”. For the same compound, the “Solubility of the second solvent” value ([3]; first solvent Toluene, second solvent Heptanes) was “emulsified”, the “Solubility of the second solvent” value ([3]; first solvent Toluene, second solvent Hexane) was “emulsified” and the “Solubility of the second solvent” value ([3]; first solvent Toluene, second solvent IPA) was “miscible”. The “Solubility of the second solvent” value ([3]; first solvent Toluene, second solvent MTBE) was “miscible”, the “Solubility of the second solvent” value ([3]; first solvent Toluene, second solvent THF) was “miscible” and the “Solubility of the second solvent” value ([3]; first solvent Toluene, second solvent Water) was “layered”.

Reference: patent US20210015752A1, “METHODS FOR PRODUCING PARTICLES OF AN ACTIVE INGREDIENT” (Savior Lifetec Corporation, priority 2017, published 2021)
